The text below walks through data of patent US10301255B2, “Hepatitis B antiviral agents” (Enanta Pharmaceuticals, Inc., priority 2015, dated 2019).

One data set concerns HBV. Briefly: HepAD38 antiviral assay: reduction of viral product accumulation (virion DNA by qPCR; HBsAg/HBeAg ELISA). In kind it is cell-based. The note with it: Hepatitis B virus, 120 h; HepAD38 cells, tetracycline removed; harvest five days after compound addition; 50% reduction of viral product vs no drug controls. How it is done:
(§1) Methods: HepAD38 cells are maintained as previously reported (Ladner et at, Antimicrob. Agents Chemother. 1997, […], 1715). Briefly, cells are passaged upon attaining confluency in DMEM/F12 media in the presence of 10% FBS, Penn/Strep, 250 μg/mL G418, and 1 ug/ml tetracycline. Novel compounds are screened by first washing cells three times with PBS to remove tetracycline, and plating in 96 well plates at 35,000 cells/well. Compounds dissolved in DMSO are then diluted 1:200 into wells containing cells. Five days after compound addition, material is harvested for analysis. For an extended 8 day analysis, cells are plated and treated as described above, but media and compound are refreshed on d2 and d5 post initial treatment.
On harvest day, virion DNA is obtained by lysing with Sidestep Lysis and Stabilization Buffer and then quantified via quantitative real time PCR. Commercially available ELISA kits are used to quantitate the viral proteins HBsAg (Alpco) or HbeAg (US Biological) by following the manufacturer's recommended protocol after diluting samples to match the linear range of their respective assays. Irrespective of readout, compound concentrations that reduce viral product accumulation in the cell lysates or supernatants by 50% relative to no drug controls (EC50) are reported; EC50 ranges are as follows: A<1 μM; […].
In the case of `O=C(Nc1ccc(F)c(Cl)c1)c1ccc(Cl)c(C(F)(F)CCCO)c1` [Compound 17], the EC50 was more than 10 µM.
The same measure, in the same setting: the figure for `N#Cc1cc(NC(=O)c2ccc(Cl)c(C(F)(F)CCCOC(=O)Nc3ccccc3)c2)ccc1Cl` [Compound 9] is more than 10 µM.
Molecule `N#Cc1cc(NC(=O)c2ccc(Cl)c(C(F)(F)CCCO)c2)ccc1Cl` [Compound 4] displayed an EC50 of more than 10 µM.
On the same count and under the same terms, the figure for `N#Cc1ccc(NC(=O)c2ccc(Cl)c(C(F)(F)CCCO)c2)cc1F` [Compound 13] is more than 10 µM.
The same measure, in the same setting: the figure for `O=C(Nc1cc(F)c(F)c(F)c1)c1ccc(Cl)c(C(F)(F)CCCO)c1` [Compound 1] is less than 1 µM; for `COC(=O)OCCCC(F)(F)c1cc(C(=O)Nc2cc(F)c(F)c(F)c2)ccc1Cl` [Compound 2] it is 1 to 10 µM; for `O=C(Nc1ccc(C2CC2)c(Cl)c1)c1ccc(Cl)c(C(F)(F)CCCO)c1` [Compound 12] it is more than 10 µM.
The same measure, in the same setting: the result for `CC(C)(C)NC(=O)OCCCC(F)(F)c1cc(C(=O)Nc2ccc(Cl)c(C#N)c2)ccc1Cl` [Compound 10] reads more than 10 µM.
`O=C(Nc1ccc(F)c(C2CC2)c1)c1ccc(Cl)c(C(F)(F)CCCO)c1` [Compound 15]: the EC50 is more than 10 µM.
The same measure, in the same setting: the figure for `O=C(Nc1ccc(C(F)(F)F)c(C2CC2)c1)c1ccc(Cl)c(C(F)(F)CCCO)c1` [Compound 11] is more than 10 µM; for `COc1ccc(NC(=O)c2ccc(Cl)c(C(F)(F)CCCO)c2)cc1C1CC1` [Compound 6] it is 1 to 10 µM; for `CCNC(=O)OCCCC(F)(F)c1cc(C(=O)Nc2ccc(Cl)c(C#N)c2)ccc1Cl` [Compound 7] it is more than 10 µM.
The same measure, in the same setting: the figure for `O=C(Nc1ccc(C(F)(F)F)c(Cl)c1)c1ccc(Cl)c(C(F)(F)CCCO)c1` [Compound 18] is more than 10 µM; for `COc1ccc(NC(=O)c2ccc(Cl)c(C(F)(F)CCCO)c2)cc1C#N` [Compound 5] it is more than 10 µM; for `CC(F)(CCCO)c1cc(C(=O)Nc2cc(F)c(F)c(F)c2)ccc1Cl` (stereo not drawn) [Compound 21] it is more than 10 µM.
On the same count and under the same terms, the figure for `N#Cc1ccc(NC(=O)c2ccc(Cl)c(C(F)(F)CCCO)c2)cc1C(F)(F)F` [Compound 19] is more than 10 µM; for `O=C(Nc1cc(F)c(F)c(F)c1)c1ccc(Cl)c(C(F)(F)CCCF)c1` [Compound 3] it is less than 1 µM; for `OCCCC(F)(F)c1cc(-c2nc(-c3ccc(F)c(Br)c3)c[nH]2)ccc1Cl` [Compound 20] it is more than 10 µM.
As for `N#Cc1cc(NC(=O)c2ccc(Cl)c(C(F)(F)CCCOC(=O)NCc3ccccc3)c2)ccc1Cl` [Compound 8], the EC50 is more than 10 µM.
Still for that read-out and setting: the figure for `O=C(Nc1ccc(F)c(C(F)(F)F)c1)c1ccc(Cl)c(C(F)(F)CCCO)c1` [Compound 16] is more than 10 µM; for `N#Cc1ccc(NC(=O)c2ccc(Cl)c(C(F)(F)CCCO)c2)cc1Cl` [Compound 14] it is more than 10 µM.
On the same count and under the same terms, the figure for `O=C(Nc1cc(F)c(F)c(F)c1)c1ccc(Cl)c(C(O)CCCO)c1` (stereo not drawn) [Compound 22] is more than 10 µM.
Still for that read-out and setting: the figure for `O=C(Nc1cc(F)c(F)c(F)c1)c1ccc(Cl)c(C(F)CCCO)c1` (stereo not drawn) [Compound 23] is more than 10 µM.

System in another data set: not listed separately
Briefly: Compound toxicity by ATPlite 1 Step (total ATP levels). It is filed as cell-based. The note with it: human; HepAD38 cells, day of harvest; 50% reduction of total ATP vs no drug controls. How it is done: as §1
Additionally, on day of harvest, compound toxicity is evaluated by treating cells with ATPlite 1 Step according to the manufacturer's protocol. Compound concentrations that reduce total ATP levels in wells by 50% relative to no drug controls (CC50) are reported; CC50 ranges are as follows: […].
Turning to `O=C(Nc1cc(F)c(F)c(F)c1)c1ccc(Cl)c(C(F)(F)CCCO)c1` [Compound 1], the 50% cytotoxic concentration (CC50) is less than 10 µM.
On the same count and under the same terms, the figure for `COC(=O)OCCCC(F)(F)c1cc(C(=O)Nc2cc(F)c(F)c(F)c2)ccc1Cl` [Compound 2] is 10 to 30 µM; for `CC(F)(CCCO)c1cc(C(=O)Nc2cc(F)c(F)c(F)c2)ccc1Cl` (stereo not drawn) [Compound 21] it is more than 30 µM; for `O=C(Nc1cc(F)c(F)c(F)c1)c1ccc(Cl)c(C(F)(F)CCCF)c1` [Compound 3] it is less than 10 µM.
